Data as given in patent US11123398B2, “Chemotherapeutic combinations of cationic antimicrobial peptides and chemotherapeutics” (LYTIX BIOPHARMA AS, priority 2014, dated 2021).
Non-standard residues stand in square brackets, D forms with d. Residues, ends and D or L forms follow the SMILES beside them. Dip = N[C@H](C(=O)O)C(c1ccccc1)c1ccccc1

Columns and labels:
A375 cells = assay: Release of HMGB1 (Western blot); format: cell-based, human; conditions: 35 μM, up to 60 min
Procedure: A375 cells were seeded with 3×10^5 cells/well in 6-well plates in a complete media, and allowed to adhere overnight. Cells were treated with LTX-315 or LTX-328 at 35 μM, and incubated at 37° C. and 5% CO2 for different time points (5, 10, 15, 30, 60 min), and negative controls were serum-free RPMI-1650. Supernatants (S) were collected and centrifuged at 1,400 g for five minutes, and cell lysates (L) were harvested after washing with PBS twice and then subsequently lysed using a 4× Sample buffer (Invitrogen, number), 0.1 M DTT (Sigma number) and water. Supernatants were concentrated using Amicon Ultra 50K centrifugal filters (Millipore UFC505024), and the cell lysate was sonicated. Both supernatants and lysate were boiled and resolved in a 10% sodium dodecyl sulfate polyacrylamide gel electrophoresis (SDS-PAGE), and then electro transferred to a polyvindiline difluoride (PVDF) membrane (Millipore). The membrane was blocked in 5% milk and incubated with the HMGB1 antibody (rabbit, polyclonal, abcam ab 18256); the membrane was then rinsed several times with TBST, incubated with a horseradish peroxidase (HRP)-conjugated secondary antibody (abcam ab6721), rinsed again with TBST and then developed using WB Luminol Reagent (Santa Cruz Biotechnology, Heidelberg, Germany).

A20 lymphoma = assay: LTX-315 with metronomic CY in A20 lymphoma model; format: in vivo, Balb/c mice; conditions: LTX-315 alone, 1 mg i.t. once a day for 3 days
Procedure: Tumor cells were harvested, washed in RPMI-1640 and injected intradermally (i.d.) into the right side of the abdomen in Balb/c mice (5×10^6 A20 cells per mouse/50 μl RPMI-1640). When animals obtained palpable tumors (20-30 mm^2) animals were injected i.p. with a single dose of CY (day 4) dissolved in saline (2.0 mg CY/500 μl saline). […] Tumor size was measured using an electronic caliper and expressed as the area of an ellipse [(maximum dimension/2)×(minimum dimension/2)×π]. Animals were then euthanized when the product of the perpendicular tumor dimensions reached 130 mm^2 or when tumor ulceration developed.

NCCCC[C@H](NC(=O)[C@@H](NC(=O)[C@H](Cc1c[nH]c2ccccc12)NC(=O)[C@H](CCCCN)NC(=O)[C@H](CCCCN)NC(=O)[C@H](Cc1c[nH]c2ccccc12)NC(=O)[C@H](Cc1c[nH]c2ccccc12)NC(=O)[C@H](CCCCN)NC(=O)[C@@H](N)CCCCN)C(c1ccccc1)c1ccccc1)C(N)=O [LTX-315, K-K-W-W-K-K-W-Dip-K-NH2] (H-KKWWKKW[Dip]K-NH2)
HMGB1 translocation from cell lysate to supernatant (A375 cells): gradual translocation from the cell lysate to the supernatant detected
Animals with complete regression of palpable A20 tumors (A20 lymphoma): one of the animals
Animals with partial response (A20 lymphoma): remainder of the animals
